Consider 39 compounds from patent publication US20240368153A1, “Aminopyridine-based MTA-Cooperative PRMT5 Inhibitors” (Mirati Therapeutics, Inc., priority 2021, published 2024).

Test [1] has as its target recombinant human dual expressed Avi PRMT5/His-MEP50 protein (Homo sapiens (Human), UniProt O14744). The test can be described thus: HTRF binding assay in presence of MTA. The conditions noted are these: 30 μM MTA. Here is the method:
The PRMT5 binding activity of compounds of the present invention was determined using an HTRF binding assay or SPR assay.
A recombinant human dual expressed Avi PRMT5/His-MEP50) protein (corresponding to amino acids for PRMT5 2-637, and 2-342 for MEP50 expressed in baculovirus) was incubated with target fragments in final buffer (25 mM ADA pH 7.2, 30 μM MTA, 1 mM TCEP, 50 mM NaCl, 0.002% Tween, 5 nM proprietary Tracer binding compound prepared in-house), overnight at 2-8° C. After overnight incubation the binding is monitored after the addition of 0.5 nM Anti-His-Tb (Cisbio) after 1 hr incubation at RT (˜20-24 hrs total binding time). The HTRF signal was measured using a Clariostar reader (BMG) excitation filter (Ex Tr), dichroic filter (LP TP) and emission filters (F 665-10 and F 620-10) manufacturer's instructions. The HTRF ratio was calculated using the formula: [emission 665/emission 620]*10000.

In the next test the target is PRMT5/MEP50 complex (Homo sapiens (Human), UniProt O14744). The test can be described thus: PRMT5:MEP50 FlashPlate Assay. It counts as biochemical. Here is the method:
The PRMT5 inhibitory activity of compounds of the present invention was determined using a PRMT5:MEP50 FlashPlate Assay (Reaction Biology Corporation).
The assay uses purified human, PRMT5 enzyme to convert S-adenosyl-L-[methyl-^3H]methionine plus histone H4 L-arginine to S-adenosyl-L-homocysteine plus histone H4 [methyl-^3H]-L-arginine. The assay was carried out using Streptavidin-coated FlashPlates (Perkin Elmer), which contained a scintillant embedded in the plastic of the plate. The histone H4 peptide substrate was conjugated with biotin, which binds to the streptavidin-coated well of the plate, placing the H4 peptide in close proximity to the side well and the scintillant. The transfer of the tritiated methyl group from S-adenosyl-L-[methyl-^3H]methionine to the bound histone H4 peptide generated a radiolabeled histone H4, which was quantitated by measuring in a scintillation counter to determine the activity of PRMT5 enzyme in the presence and absence of compound. […] Briefly, compounds of the present invention were solubilized in 100% DMSO at a highest concentration of 10 mM. For IC, determinations, the initial starting concentration for the serial dilutions of each compound was 50 μM. Control samples lacking compound, PRMT5/MEP50 complex or various reaction components also were prepared and processed in parallel with compound test samples. SAH was used as a positive control for assay validation. To measure PRMT5 inhibitory activity, 3 nM PRMT5/MEP50 complex (Reaction Biology Corporation) was preincubated with test compound in assay buffer containing 40 nM histone H4 peptide (amino acids 1-15)-Biotin conjugate for 20 min at room temperature. The enzymatic reaction was initiated by adding 1 μM tritiated S-adenosyl methionine (final concentration) and the reaction is allowed to proceed for 20 min. The reaction was stopped and the amount of bound, tritiated H4 peptide in each sample was determined using a scintillation counter. The IC50 value for each compound was calculated from each 10-point dose-response curve for samples plus and minus MTA using GraphPad Prism software and the results for exemplary compounds of Formula (I) is shown in Table 9a.

[2] abbreviates: IC50 + 2 μM MTA, histone H4 peptide, presence of 2 μM MTA.
[3] abbreviates: histone H4 peptide, absence of MTA, read-out: IC50.
The mark [4] stands for this setting: read-out: IC50 + 2 μM MTA, histone H4 peptide, presence of 2 μM MTA.

Read-outs that look alike come from different tables or passages of the source.

Chain of recombinant human dual expressed Avi PRMT5/His-MEP50 protein (O14744 2-637): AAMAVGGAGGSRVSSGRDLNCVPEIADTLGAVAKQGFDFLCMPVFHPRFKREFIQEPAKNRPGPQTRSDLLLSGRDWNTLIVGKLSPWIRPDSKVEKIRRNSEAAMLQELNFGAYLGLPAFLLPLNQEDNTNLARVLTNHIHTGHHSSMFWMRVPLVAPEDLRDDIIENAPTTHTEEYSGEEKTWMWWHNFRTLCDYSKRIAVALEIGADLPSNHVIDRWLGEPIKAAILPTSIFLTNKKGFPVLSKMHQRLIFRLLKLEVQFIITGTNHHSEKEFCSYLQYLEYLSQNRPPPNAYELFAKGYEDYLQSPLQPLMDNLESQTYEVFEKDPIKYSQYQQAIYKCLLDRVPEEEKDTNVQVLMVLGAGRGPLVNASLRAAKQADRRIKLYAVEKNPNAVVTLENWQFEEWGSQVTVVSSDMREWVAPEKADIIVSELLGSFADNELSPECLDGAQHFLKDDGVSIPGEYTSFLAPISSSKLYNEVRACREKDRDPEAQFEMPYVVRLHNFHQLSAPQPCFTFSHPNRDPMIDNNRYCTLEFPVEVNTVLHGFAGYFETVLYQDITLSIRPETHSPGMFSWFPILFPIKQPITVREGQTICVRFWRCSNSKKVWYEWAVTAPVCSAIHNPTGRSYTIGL
Chain of recombinant human dual expressed Avi PRMT5/His-MEP50 protein (Q9BQA1 2-342 partner): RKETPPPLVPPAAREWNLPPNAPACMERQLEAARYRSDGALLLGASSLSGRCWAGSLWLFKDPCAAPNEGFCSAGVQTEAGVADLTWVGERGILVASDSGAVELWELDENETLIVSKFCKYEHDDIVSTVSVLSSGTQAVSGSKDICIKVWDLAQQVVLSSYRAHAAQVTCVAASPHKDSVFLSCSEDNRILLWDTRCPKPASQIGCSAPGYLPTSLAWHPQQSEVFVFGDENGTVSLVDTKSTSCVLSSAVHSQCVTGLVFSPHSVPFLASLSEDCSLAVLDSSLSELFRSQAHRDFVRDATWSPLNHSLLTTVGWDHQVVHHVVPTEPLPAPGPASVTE
Chain of PRMT5/MEP50 complex (O14744 whole entry): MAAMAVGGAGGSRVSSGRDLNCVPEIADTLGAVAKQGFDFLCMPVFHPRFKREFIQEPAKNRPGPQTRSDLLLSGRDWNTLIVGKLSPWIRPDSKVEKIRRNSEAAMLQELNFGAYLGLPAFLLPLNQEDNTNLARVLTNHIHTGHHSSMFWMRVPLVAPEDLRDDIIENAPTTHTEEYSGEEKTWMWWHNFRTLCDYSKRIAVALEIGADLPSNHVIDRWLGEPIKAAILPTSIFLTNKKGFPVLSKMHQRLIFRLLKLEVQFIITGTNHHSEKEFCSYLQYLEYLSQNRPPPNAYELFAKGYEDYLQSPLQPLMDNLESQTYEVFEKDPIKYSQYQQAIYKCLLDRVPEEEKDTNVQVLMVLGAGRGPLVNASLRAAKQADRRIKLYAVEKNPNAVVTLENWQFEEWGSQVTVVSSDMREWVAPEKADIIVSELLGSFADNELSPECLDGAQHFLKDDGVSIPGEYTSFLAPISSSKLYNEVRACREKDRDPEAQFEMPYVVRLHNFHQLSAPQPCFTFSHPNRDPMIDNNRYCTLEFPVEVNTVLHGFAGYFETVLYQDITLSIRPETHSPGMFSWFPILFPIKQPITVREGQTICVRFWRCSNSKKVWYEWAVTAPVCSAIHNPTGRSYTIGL
Chain of PRMT5/MEP50 complex (Q9BQA1 whole entry partner): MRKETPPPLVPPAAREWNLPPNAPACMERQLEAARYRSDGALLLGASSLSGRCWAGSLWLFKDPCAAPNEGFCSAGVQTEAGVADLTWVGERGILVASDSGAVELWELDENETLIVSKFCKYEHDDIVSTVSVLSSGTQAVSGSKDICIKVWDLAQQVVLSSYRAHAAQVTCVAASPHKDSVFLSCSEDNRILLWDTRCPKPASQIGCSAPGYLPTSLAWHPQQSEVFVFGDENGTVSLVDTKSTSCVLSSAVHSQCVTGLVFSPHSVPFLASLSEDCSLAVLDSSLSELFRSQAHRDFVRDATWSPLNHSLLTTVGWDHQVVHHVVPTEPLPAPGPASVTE

With `Cc1cc(N)nc2cc(-c3cccnn3)cnc12` [Example 1-4, 4-methyl-7-(pyridazin-3-yl)-1,5-naphthyridin-2-amine], in test [1], the IC50 is 7.46 µM.
On the same count and under the same terms, as for `Cc1cc(N)nc2ccc(-c3cncs3)nc12` [Example 4-4, 4-methyl-6-thiazol-5-yl-1,5-naphthyridin-2-amine], the figure is 29.6 µM.
As for `Cc1cc2[nH]c(N3CCN(C)C3=O)cc2nc1N` [Example 13-5, 1-(5-amino-6-methyl-1H-pyrrolo[3,2-b]pyridin-2-yl)-3-methyl-imidazolidin-2-one], the IC50 on PRMT5/MEP50 complex (setting [2]) is 70 µM; at PRMT5/MEP50 complex (setting [3]) it was above 300 µM; in test [1], 31.8 µM.
Regarding `Cc1cc(N)nc2ccc(NC3CCC3)nc12` [Example 5-3, N^6-cyclobutyl-4-methyl-1,5-naphthyridine-2,6-diamine], the IC50 in test [1] worked out at 87.9 µM.
On the same count and under the same terms, then `Cc1cc(N)nc2cc(Oc3ccccn3)cnc12` [Example 3-6, 4-methyl-7-(pyridin-2-yloxy)-1,5-naphthyridin-2-amine], with 40.6 µM; and `Cc1cc(N)nc2ccc(-c3cccnc3)nc12` [Example 4-3, 4-methyl-6-(3-pyridyl)-1,5-naphthyridin-2-amine], with 23.9 µM; and `CC(=O)NCc1cc2nc(N)c(C)cc2n1C(C)=O` [Example 15-7, N-((1-acetyl-5-amino-6-methyl-1H-pyrrolo[3,2-b]pyridin-2-yl)methyl)acetamide], with 0.581 µM.
With `Cn1ncc(N2CCc3cc(F)c(N)nc3C2)c1-c1ccccc1C#N` [Example 11-4, 2-(4-(2-amino-3-fluoro-5,6-dihydro-1,7-naphthyridin-7(8H)-yl)-1-methyl-1H-pyrazol-5-yl)benzonitrile], the IC50 at PRMT5/MEP50 complex (setting [3]) is above 300 µM; at PRMT5/MEP50 complex (setting [4]), 79.8 µM; in test [1] it was 1.43 µM.
`Cc1cc(N)nc2cc(Cc3cscn3)cnc12` [Example 2-10, 4-methyl-7-(thiazol-4-ylmethyl)-1,5-naphthyridin-2-amine]: in test [1], the IC50 worked out at 2.14 µM.
The same measure, in the same setting: then `Cc1cc(N)nc2cc(-c3ccsn3)cnc12` [Example 1-5, 7-(isothiazol-3-yl)-4-methyl-1,5-naphtbyridin-2-amine], with 55.5 µM.
Turning to `C#Cc1c(CNC(=O)c2ccccc2)[nH]c2cc(C)c(N)nc12` [Example 15-4, N-((5-amino-3-ethynyl-6-methyl-1H-pyrrolo[3,2-b]pyridin-2-yl)methyl)benzamide], the half-maximal inhibitory concentration (IC50) in test [1] was 17 µM.
With `Cc1cc(N)nc2cc(Cc3ccncc3)cnc12` [Example 2-8, 4-methyl-7-(4-pyridylmethyl)-1,5-naphthyridin-2-amine], in test [1], the IC50 came out at 35.5 µM.
As to `Cc1cc2[nH]c(N3CCNC3=O)cc2nc1N` [Example 13-6, 1-(5-amino-6-methyl-1H-pyrrolo[3,2-b]pyridin-2-yl)imidazolidin-2-one], the IC50 on PRMT5/MEP50 complex (setting [2]) came out at 183 µM; at PRMT5/MEP50 complex (setting [3]), 60.3 µM; in test [1], 6.69 µM.
In the case of `Cc1cc(N)nc2cc(Oc3ccncc3)cnc12` [Example 3-8, 4-methyl-7-(pyridin-4-yloxy)-1,5-naphtbyridin-2-amine], the IC50 in test [1] worked out at 84 µM.
The same measure, in the same setting: as for `Cc1cc(N)nc2cc(-c3ccccc3)cnc12` [Example 1-1, 4-methyl-7-phenyl-1,5-naphthyridin-2-amine], the figure is 17.2 µM; as for `Cc1cc(N)nc2cc(-c3ccccn3)cnc12` [Example 1-2, 4-methyl-7-(pyridin-2-yl)-1,5-naphthyridin-2-amine], 82 µM; as for `Nc1ccc2cc(Cl)ncc2n1` [Example 6-1, 6-chloro-1,7-naphthyridin-2-amine], at least 100 µM.
As to `Cc1cc2c(cc(CNC(=O)c3ccccc3)n2C)nc1N` [Example 15-3, N-[(5-amino-1,6-dimethyl-pyrrolo[3,2-b]pyridin-2-yl)methyl]benzamide], the IC50 in test [1] came out at 0.138 µM.
Same read-out and setting: then `Cc1cc(N)nc2ccc(-c3ccsn3)nc12` [Example 4-10, 6-isothiazol-3-yl-4-methyl-1,5-naphthyridin-2-amine], with 13.5 µM.
As for `Cc1cc(N)nc2cc(C(C#N)N3C(=O)c4ccccc4C3=O)cnc12` (stereo not shown) [Example 7-7, 2-(6-amino-8-methyl-1,5-naphthyridin-3-yl)-2-(1,3-dioxoisoindolin-2-yl)acetonitrile], the values for the IC50 (at PRMT5/MEP50 complex (setting [3]); on PRMT5/MEP50 complex (setting [4]); in test [1]) were above 300 µM, 2.39 µM and 0.024 µM, respectively.
For the compound `Cc1cc(N)nc2cc(-c3cnn(C)c3)cnc12` [Example 1-7, 4-methyl-7-(1-methyl-1H-pyrazol-4-yl)-1,5-naphthyridin-2-amine], the IC50 in test [1] amounted to 7.92 µM.
Consider `Cc1cc2[nH]c(-n3cnc(Br)n3)cc2nc1N` [Example 13-2, 2-(3-bromo-1,2,4-triazol-1-yl)-6-methyl-1H-pyrrolo[3,2-b]pyridin-5-amine], for which the IC50 at PRMT5/MEP50 complex (setting [2]) came out at 72.8 µM; at PRMT5/MEP50 complex (setting [3]) it was 83.8 µM; in test [1], 4.27 µM.
On to `Cc1cc(N)nc2cc(Cc3ccccc3)cnc12` [Example 2-1, 7-benzyl-4-methyl-1,5-naphthyridin-2-amine], for which, in test [1], the IC50 was found to be 6.64 µM.
For `Cc1cc(N)nc2ccc(-c3ccc(F)cc3)nc12` [Example 4-9, 6-(4-fluorophenyl)-4-methyl-1,5-naphthyridin-2-amine], the IC50 in test [1] was determined as 14 µM.
Still for that read-out and setting: as for `CNc1ccc2nc(N)cc(C)c2n1` [Example 5-1, N^2,8-dimethyl-1,5-naphthyridine-2,6-diamine], the figure is at least 100 µM; as for `Cc1cc(N)nc2cc(Oc3ccccc3)cnc12` [Example 3-1, 4-methyl-7-phenoxy-1,5-naphthyridin-2-amine], 8.99 µM.
Still for that read-out and setting: then `Cn1cc(N2CCc3cc(F)c(N)nc3C2)cn1` [Example 11-3, 3-fluoro-7-(1-methyl-1H-pyrazol-4-yl)-5,6,7,8-tetrahydro-1,7-naphthyridin-2-amine], with at least 100 µM.
Still for that read-out and setting: as for `Nc1ccc2c(n1)CN(c1cccnc1)CC2` [Example 11-1, 7-(3-pyridyl)-6,8-dihydro-5H-1,7-naphthyridin-2-amine], the figure is 3.68 µM.
In the case of `Cc1cc(N)nc2cc(Oc3ccccc3F)cnc12` [Example 3-2, 7-(2-fluorophenoxy)-4-methyl-1,5-naphthyridin-2-amine], in test [1], the IC50 stood at 5.11 µM.
Still for that read-out and setting: as for `Cc1cc(N)nc2cc(Oc3ccccc3C#N)cnc12` [Example 3-4, 2-((6-amino-8-methyl-1,5-naphthyridin-3-yl)oxy)benzonitrile], the figure is 33.9 µM.
On the same count and under the same terms, then `Cc1ccccc1Oc1cnc2c(C)cc(N)nc2c1` [Example 3-5, 4-methyl-7-(2-methylphenoxy)-1,5-naphtbyridin-2-amine], with 39.6 µM.
On the same count and under the same terms, as for `Cc1cc(N)nc2ccc(-c3cnsc3)nc12` [Example 4-6, 6-isothiazol-4-yl-4-methyl-1,5-naphthyridin-2-amine], the figure is 21.8 µM.
With `Cc1ccccc1Cc1cnc2c(C)cc(N)nc2c1` [Example 2-5, 4-methyl-7-(2-methylbenzyl)-1,5-naphtbyridin-2-amine], the IC50 in test [1] was 8.83 µM.
Regarding `Cc1cc(N)nc2ccc(-c3ccccn3)nc12` [Example 4-2, 4-methyl-6-(2-pyridyl)-1,5-naphthyridin-2-amine], the IC50 in test [1] was 13.9 µM.
In the case of `Cc1cc(N)nc2ccc(-c3cnn(C)c3)nc12` [Example 4-5, 4-methyl-6-(1-methylpyrazol-4-yl)-1,5-naphthyridin-2-amine], the IC50 in test [1] worked out at 64.1 µM.
On the same count and under the same terms, as for `Cc1cc(N)nc2cc(-c3cncs3)cnc12` [Example 1-6, 4-methyl-7-(thiazol-5-yl)-1,5-naphthyridin-2-amine], the figure is 51 µM; as for `Cc1cc(N)nc2cc(Cc3ccccn3)cnc12` [Example 2-6, 4-methyl-7-(2-pyridylmethyl)-1,5-naphthyridin-2-amine], 2.85 µM; as for `Cc1cc(N)nc2cc(-c3cccnc3)cnc12` [Example 1-3, 4-methyl-7-(pyridin-3-yl)-1,5-paphthyridin-2-amine], 2.08 µM.
As to `Cc1cc(N)nc2cc(Oc3ccccc3Cl)cnc12` [Example 3-3, 7-(2-chlorophenoxy)-4-methyl-1,5-naphthyridin-2-amine], the IC50 in test [1] was 4.8 µM.
